{"source": "patent US6914045B2", "about": "“Glycopeptide antibiotics” (Wyeth Holdings Corporation, priority 2001, dated 2005)", "key": {"[1]": {"test_system": "Staphylococcus aureus-SMITH (GC 4543)", "test": "acute lethal infection in mice", "assay_type": "in vivo", "conditions": "acute lethal infection, female CD-1 mice, intraperitoneal challenge, intravenous 30 min. after infection, 7 day survival", "method_in_brief": "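Female CD-1 mice (20±2 g) got an intraperitoneal bacterial challenge lethal to untreated controls within 24–48 hr. Compound was dosed intravenously 30 min after infection, five mice per dose. ED50 was calculated from 7-day survival pooled across 3 tests.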"}, "[2]": {"test_system": "Streptococcus sp.", "test": "in vitro antibacterial evaluation, MIC by broth dilution", "assay_type": "cell-based", "conditions": "broth dilution, 18 hours at 35° C.", "method_in_brief": "(§1)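 MIC = lowest antibiotic concentration preventing visible growth; inoculum 5×10^5 CFU/mL; drug range 64-0.06 μg/mL; Muller-Hinton II […]; NCCLS M7-A2 guidance.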"}, "[3]": {"test_system": "Enterococcus sp.", "test": "in vitro antibacterial evaluation, MIC by broth dilution", "assay_type": "cell-based", "conditions": "broth dilution, 18 hours at 35° C.", "method_in_brief": "as §1"}, "[4]": {"test_system": "Staphylococcus sp.", "test": "in vitro antibacterial evaluation, MIC by broth dilution", "assay_type": "cell-based", "conditions": "broth dilution, 18 hours at 35° C.", "method_in_brief": "as §1"}, "[5]": {"test_system": "Escherichia coli", "test": "in vitro antibacterial evaluation, MIC by broth dilution", "assay_type": "cell-based", "conditions": "18 hours at 35° C.", "method_in_brief": "as §1"}}}
{"molecule": "COc1cccc(C2OCC3OC(OC4C(CO)OC(Oc5ccc(CC6NC(=O)C(C(C)c7ccccc7)NC(=O)CNC(=O)C(CO)NC(=O)C(C(O)C7CNC(=N)N7C7OC(CO)C(O)C(O)C7O)NC(=O)C(C(O)C7CNC(=N)N7)NC6=O)cc5)C(O)C4O)C(O)C(O)C3O2)c1", "note": "(stereo not drawn) [Example 137, Cyclo[glycyl-β-methylphenylalanyl-O-[4-O-[4,6-O-(3-methoxybenzylidene)hexopyranosyl]-hexopyranosyl]tyrosyl-3-(2-iminoimidazolidin-4-yl)seryl-3-(3-hexopyranosyl-2-iminoimidazolidin-4-yl)serylseryl]]", "values": [{"measurement": "median effective dose (ED50), Staphylococcus aureus-SMITH (GC 4543)", "setting": "[1]", "result": 0.24, "unit": "mg/kg"}, {"measurement": "MIC Streptococcus agalactiae (GC 4564)", "setting": "[2]; Streptococcus agalactiae (GC 4564)", "result": 0.5, "unit": "µg/mL"}, {"measurement": "MIC Streptococcus pneumoniae (ATCC 6301)", "setting": "[2]; Streptococcus pneumoniae (ATCC 6301)", "result": 0.12, "unit": "µg/mL"}, {"measurement": "MIC Streptococcus pneumoniae (GC 1894)", "setting": "[2]; Streptococcus pneumoniae (GC 1894)", "result": "<0.06", "unit": "µg/mL"}, {"measurement": "MIC Streptococcus pneumoniae (GC 4565)", "setting": "[2]; Streptococcus pneumoniae (GC 4565)", "result": 0.25, "unit": "µg/mL"}, {"measurement": "MIC Streptococcus pyogenes (GC 4563)", "setting": "[2]; Streptococcus pyogenes (GC 4563)", "result": 0.25, "unit": "µg/mL"}, {"measurement": "MIC Streptococcus pneumoniae (ATCC 6301)", "setting": "[2]; strain ATCC 6301", "result": 0.12, "unit": "µg/mL"}, {"measurement": "MIC Streptococcus pneumoniae (GC 1894)", "setting": "[2]; strain GC 1894", "result": "<0.06", "unit": "µg/mL"}, {"measurement": "MIC Streptococcus pyogenes (GC 4563)", "setting": "[2]; strain GC 4563", "result": 0.25, "unit": "µg/mL"}, {"measurement": "MIC Streptococcus agalactiae (GC 4564)", "setting": "[2]; strain GC 4564", "result": 0.5, "unit": "µg/mL"}, {"measurement": "MIC Streptococcus pneumoniae (GC 4565)", "setting": "[2]; strain GC 4565", "result": 0.25, "unit": "µg/mL"}, {"measurement": "MIC Enterococcus avium (GC 4558)", "setting": "[3]; Enterococcus avium (GC 4558)", "result": "4 to 8", "unit": "µg/mL"}, {"measurement": "MIC Enterococcus faecalis (ATCC 29212)", "setting": "[3]; Enterococcus faecalis (ATCC 29212)", "result": "4 to 8", "unit": "µg/mL"}, {"measurement": "MIC Enterococcus faecalis (GC 2242)", "setting": "[3]; Enterococcus faecalis (GC 2242)", "result": "4 to 8", "unit": "µg/mL"}, {"measurement": "MIC Enterococcus faecalis (GC 2691)", "setting": "[3]; Enterococcus faecalis (GC 2691)", "result": "4 to 8", "unit": "µg/mL"}, {"measurement": "MIC Enterococcus faecalis (GC 3059)", "setting": "[3]; Enterococcus faecalis (GC 3059)", "result": "4 to 8", "unit": "µg/mL"}, {"measurement": "MIC Enterococcus faecalis (GC 4552)", "setting": "[3]; Enterococcus faecalis (GC 4552)", "result": "4 to 8", "unit": "µg/mL"}, {"measurement": "MIC Enterococcus faecalis (GC 4553)", "setting": "[3]; Enterococcus faecalis (GC 4553)", "result": "4 to 8", "unit": "µg/mL"}, {"measurement": "MIC Enterococcus faecalis (GC 4554)", "setting": "[3]; Enterococcus faecalis (GC 4554)", "result": "4 to 8", "unit": "µg/mL"}, {"measurement": "MIC Enterococcus faecalis (GC 6189)", "setting": "[3]; Enterococcus faecalis (GC 6189)", "result": 4, "unit": "µg/mL"}, {"measurement": "MIC Enterococcus faecium (GC 2243)", "setting": "[3]; Enterococcus faecium (GC 2243)", "result": "4 to 8", "unit": "µg/mL"}, {"measurement": "MIC Enterococcus faecium (GC 4556)", "setting": "[3]; Enterococcus faecium (GC 4556)", "result": "4 to 8", "unit": "µg/mL"}, {"measurement": "MIC Enterococcus faecium (GC 4557)", "setting": "[3]; Enterococcus faecium (GC 4557)", "result": "2 to 4", "unit": "µg/mL"}, {"measurement": "MIC Enterococcus faecalis (ATCC 29212)", "setting": "[3]; strain ATCC 29212", "result": "4 to 8", "unit": "µg/mL"}, {"measurement": "MIC Enterococcus faecalis (GC 2242)", "setting": "[3]; strain GC 2242", "result": "4 to 8", "unit": "µg/mL"}, {"measurement": "MIC Enterococcus faecium (GC 2243)", "setting": "[3]; strain GC 2243", "result": "4 to 8", "unit": "µg/mL"}, {"measurement": "MIC Enterococcus faecalis (GC 2691)", "setting": "[3]; strain GC 2691", "result": "4 to 8", "unit": "µg/mL"}, {"measurement": "MIC Enterococcus faecalis (GC 3059)", "setting": "[3]; strain GC 3059", "result": "4 to 8", "unit": "µg/mL"}, {"measurement": "MIC Enterococcus faecalis (GC 4552)", "setting": "[3]; strain GC 4552", "result": "4 to 8", "unit": "µg/mL"}, {"measurement": "MIC Enterococcus faecalis (GC 4553)", "setting": "[3]; strain GC 4553", "result": "4 to 8", "unit": "µg/mL"}, {"measurement": "MIC Enterococcus faecalis (GC 4554)", "setting": "[3]; strain GC 4554", "result": "4 to 8", "unit": "µg/mL"}, {"measurement": "MIC Enterococcus faecium (GC 4556)", "setting": "[3]; strain GC 4556", "result": "4 to 8", "unit": "µg/mL"}, {"measurement": "MIC Enterococcus faecium (GC 4557)", "setting": "[3]; strain GC 4557", "result": "2 to 4", "unit": "µg/mL"}, {"measurement": "MIC Enterococcus avium (GC 4558)", "setting": "[3]; strain GC 4558", "result": "4 to 8", "unit": "µg/mL"}, {"measurement": "MIC Enterococcus faecalis (GC 6189)", "setting": "[3]; strain GC 6189", "result": 4, "unit": "µg/mL"}, {"measurement": "MIC Staphylococcus aureus (ATCC 29213)", "setting": "[4]", "result": "1 to 2", "unit": "µg/mL"}, {"measurement": "MIC Staphylococcus aureus (GC 1131)", "setting": "[4]", "result": 2, "unit": "µg/mL"}, {"measurement": "MIC Staphylococcus aureus (GC 3051)", "setting": "[4]", "result": "1 to 2", "unit": "µg/mL"}, {"measurement": "MIC Staphylococcus aureus (GC 3053)", "setting": "[4]", "result": "2 to 4", "unit": "µg/mL"}, {"measurement": "MIC Staphylococcus aureus (GC 4541)", "setting": "[4]", "result": "1 to 2", "unit": "µg/mL"}, {"measurement": "MIC Staphylococcus aureus (GC 4542)", "setting": "[4]", "result": "1 to 2", "unit": "µg/mL"}, {"measurement": "MIC Staphylococcus aureus (GC 4544)", "setting": "[4]", "result": 2, "unit": "µg/mL"}, {"measurement": "MIC Staphylococcus aureus (GC 4545)", "setting": "[4]", "result": "2 to 4", "unit": "µg/mL"}, {"measurement": "MIC Staphylococcus aureus (GC 1131)", "setting": "[4]; inoculum 5×10^5 CFU/mL, strain GC 1131", "result": 2, "unit": "µg/mL"}, {"measurement": "MIC Staphylococcus aureus (ATCC 29213)", "setting": "[4]; strain ATCC 29213", "result": "1 to 2", "unit": "µg/mL"}, {"measurement": "MIC Staphylococcus aureus (GC 3051)", "setting": "[4]; strain GC 3051", "result": "1 to 2", "unit": "µg/mL"}, {"measurement": "MIC Staphylococcus aureus (GC 3053)", "setting": "[4]; strain GC 3053", "result": "2 to 4", "unit": "µg/mL"}, {"measurement": "MIC Staphylococcus aureus (GC 4541)", "setting": "[4]; strain GC 4541", "result": "1 to 2", "unit": "µg/mL"}, {"measurement": "MIC Staphylococcus aureus (GC 4542)", "setting": "[4]; strain GC 4542", "result": "1 to 2", "unit": "µg/mL"}, {"measurement": "MIC Staphylococcus aureus-SMITH (GC 4543)", "setting": "[4]; strain GC 4543", "result": "1 to 2", "unit": "µg/mL"}, {"measurement": "MIC Staphylococcus aureus (GC 4544)", "setting": "[4]; strain GC 4544", "result": 2, "unit": "µg/mL"}, {"measurement": "MIC Staphylococcus aureus (GC 4545)", "setting": "[4]; strain GC 4545", "result": "2 to 4", "unit": "µg/mL"}, {"measurement": "MIC Staphylococcus haemolyticus (GC 4546)", "setting": "[4]; strain GC 4546", "result": 1, "unit": "µg/mL"}, {"measurement": "MIC Coagulase Negative Staphylococcus (GC 4547)", "setting": "[4]; strain GC 4547", "result": "1 to 2", "unit": "µg/mL"}, {"measurement": "MIC Coagulase Negative Staphylococcus (GC 4548)", "setting": "[4]; strain GC 4548", "result": "0.5 to 2", "unit": "µg/mL"}, {"measurement": "MIC Coagulase Negative Staphylococcus (GC 4549)", "setting": "[4]; strain GC 4549", "result": "0.5 to 1", "unit": "µg/mL"}, {"measurement": "MIC Coagulase Negative Staphylococcus (GC 4551)", "setting": "[4]; strain GC 4551", "result": "1 to 2", "unit": "µg/mL"}, {"measurement": "MIC Coagulase Negative Staphylococcus (GC 6257)", "setting": "[4]; strain GC 6257", "result": 1, "unit": "µg/mL"}, {"measurement": "MIC Staphylococcus aureus-SMITH (GC 4543)", "setting": "[4]; strain SMITH GC 4543", "result": "1 to 2", "unit": "µg/mL"}, {"measurement": "MIC Escherichia coli (ATCC 25922)", "setting": "[5]; strain ATCC 25922", "result": 64, "unit": "µg/mL"}, {"measurement": "MIC Escherichia coli (GC 4559)", "setting": "[5]; strain GC 4559", "result": "32 to 64", "unit": "µg/mL"}, {"measurement": "MIC Escherichia coli (GC 4560)", "setting": "[5]; strain GC 4560", "result": 1, "unit": "µg/mL"}]}
